Data published in patent US20140335184A1, “NANOPARTICLE ASSEMBLY, PREPARATION THEREOF, AND ACTIVE MATERIAL DELIVERING COMPOSITE COMPRISING THE SAME” (priority 2012, published 2014).

Test: Measurement of decrease in fluorescence of drug delivering composite
Type: physicochemical
Settings: measured as a function of time, FIGS. 16A and 16B
Excerpt: FIGS. 16A and 16B are graphs illustrating a measurement of a decrease in a fluorescence of the drug delivering composite prepared in Example 6.
FIG. 16A is a graph illustrating the measurement of a change in fluorescence of a doxorubicin solution according to time, and FIG. 16B is a graph illustrating the measurement of changes in fluorescence of the doxorubicin solution and the drug delivering composite according to an embodiment. […] However, a reduction in fluorescence of doxorubicin alone was not observed when measured as a function of time.

Change in fluorescence: not observed
SMILES: COc1cccc2c1C(=O)c1c(O)c3c(c(O)c1C2=O)C[C@@](O)(C(=O)CO)C[C@@H]3O[C@H]1C[C@H](N)[C@H](O)[C@H](C)O1 [doxorubicin]
